Data on eight molecules can be found in article PMC10574761, “Novel 1,2,3-Triazole-Containing Quinoline–Benzimidazole Hybrids: Synthesis, Antiproliferative Activity, In Silico ADME Predictions, and Docking” (Molecules, 2023).

The test system of series [1] is MRC-5 (human fetal lung fibroblasts, non-tumor). The experiment in a line: MTT proliferation assay, MRC-5. Type of series: cell-based. Conditions: MRC5, 72 h treatment. On the procedure: (§1) The effect of the new synthesized compounds was tested on five human tumor cell lines, HeLa (human cervical adenocarcinoma; from ATCC), CaCo-2 (human colorectal adenocarcinoma), HL-60 (acute promyelocytic leukemia), HuT78 (T-cell lymphoma) and THP-1 (acute monocytic leukemia), and on one non-tumor cell line, MRC-5 (human fetal lung fibroblasts). The MRC-5 cells were used between 24 and 26 passages. The cells were cultured in two different types of media: DMEM (Gibco, EU) and RPMI 1640 (Gibco, EU). Both media were supplemented with 2 mM glutamine, fetal bovine serum (10%; heat inactivated) and antibiotics (100 U penicillin and 0.1 mg streptomycin). RPMI 1640 was additionally supplemented with 10 mM HEPES and 1 mM sodium pyruvate. The cells growing in a monolayer were cultured in DMEM, while the cells growing in suspension were cultured in RPMI 1640. The cells were grown in humidified atmosphere under the conditions of 37 °C/5% CO2 gas in the CO2 incubator (IGO 150 CELLlife^TM, JOUAN, Thermo Fisher Scientific, Waltham, MA, USA).
(§2) Growth-inhibitory activity was assessed using a slightly modified procedure based on the National Cancer Institute’s protocol. Briefly, the cells were seeded in 96-well microtiter plates and incubated for 24 h. They were then treated with 10^−7 to 10^−4 M concentrations of the tested compounds for an additional 72 h. After the treatment period, the effects of the tested compounds on the growth rate of the cells were examined using the MTT assay. Absorbance was measured at 595 nm using a microplate reader. […] The selectivity index was calculated according to the following formula: SI=IC50 value of normal cell line/IC50 value of cancer cell line
(§3) The effect of each concentration was analyzed by plotting the logarithm of the concentration of the evaluated compound against the corresponding percentage inhibition value using least squares.
(In general: Formazan colour is commonly taken as a measure of viable cells.)

The test system of series [2] is HL-60 (acute promyelocytic leukemia). The series is described as follows: MTT proliferation assay, HL-60. It is filed as cell-based. Particulars: Homo sapiens, 72 h treatment. On the procedure: as §1, §2, §3
Series [3] deals with THP-1 (acute monocytic leukemia). The experiment in a line: MTT proliferation assay, THP-1. Type of series: cell-based, human. Particulars: for IC50: Homo sapiens, THP-1, 72 h treatment, MTT. On the procedure:
as §1, §2, §3

Series [4] deals with Hut78 (T-cell lymphoma). The series is described as follows: MTT proliferation assay, HuT78. Type of series: cell-based, human. Conditions: for IC50: Homo sapiens, HuT78, 72 h treatment, MTT. On the procedure:
as §1, §2, §3

Series [5] relates to CaCo-2 (human colorectal adenocarcinoma). The experiment in a line: MTT proliferation assay, CaCo-2. Type of series: cell-based. Conditions: 72 h treatment. On the procedure:
as §1, §2, §3

Series [6] relates to HuT78 cells. The series is described as follows: Cell cycle analysis by flow cytometry (PI staining). Conditions: 24 h, p < 0.05. It is filed as cell-based, human. How it is done: The cells were exposed to the compounds for 24 h, collected, washed with PBS, fixed with 70% ethanol and stored at −20 °C until analysis. On the day of analysis, the cell pellets were washed twice with PBS, resuspended in 1 mg/mL PI and 0.2 mg/mL RNase A and left in a dark/cold atmosphere for 30 min. The stained cells were analyzed using FACSCalibur (Becton Dickinson, Franklin Lakes, NJ, USA) flow cytometer. Tests were performed in duplicate and repeated twice. FlowJo software, version 10.2., was adapted for the analysis of DNA histograms.
[…] 13.5 (TIBCO Software Inc., Tulsa, USA) was used for the statistical analysis of the results. Student’s t test was used for data analysis. Differences were considered statistically significant at p < 0.05.

Series [7] has as its system HeLa (human cervical adenocarcinoma). The experiment in a line: MTT proliferation assay, HeLa. Type of series: cell-based. Conditions: 72 h treatment. On the procedure: as §1, §2, §3
The mark [8] stands for this setting: SI = IC50 of normal cell line (MRC-5) / IC50 of cancer cell line.

Consider `COc1ccc2[nH]c(-c3ccc(OCc4cn(-c5ccnc6cc(Cl)ccc56)nn4)cc3)nc2c1` [Compound 9c, 7-chloro-4-(4-{[4-(5-methoxy-1H--benzo[d]imidazol-2-yl)phenoxy]methyl}-1H-1,2,3-triazol-1-yl)quinoline], for which the melting point lay in the range of 85 to 86 °C. The molecule further displayed an IC50 in series [1] of 2.71 µM. The IC50 in series [2] turned out to be 1.02 µM. In series [3], this molecule yielded an IC50 of 0.18 µM. For the same molecule, the “selectivity index (SI) for THP-1 cells” value in series [3] (setting [8]) amounted to 15. For the same molecule, the IC50 in series [4] is 0.2 µM. Further, in series [4] (setting [8]), the “selectivity index (SI) for HuT78 cells” value was found to be 13.55. In series [5], the IC50 was determined as 8.3 µM. Besides, the “enrichment of the S fraction compared to control cells” value in series [6] (HuT-78, 0.5 µM) is 31%. For the same molecule, in series [7], the IC50 worked out at 7.53 µM.

Regarding `CCCNC(=N)c1ccc2[nH]c(-c3ccc(OCc4cn(-c5ccnc6cc(Cl)ccc56)nn4)c(Br)c3)nc2c1.Cl.Cl.Cl` [Compound 10e, 2-(3-bromo-4-{[1-(7-chloroquinolin-4-yl)-1H-1,2,3-triazol-4-yl]methoxy}phenyl)-N-propyl-1H-benzo[d]imidazol-5-carboximidamide trihydrochloride], the IC50 is above 100 µM in series [1]; 93.2 µM in series [2]; above 100 µM in series [3]; 9.68 µM in series [4]; above 100 µM in series [5]; above 100 µM in series [7]. The “increase in the aggregation of cells in the subG0/G1 phase” value in series [6] (HuT-78, 5 µM) is reported as “more than threefold”.

As to `CCCNC(=N)c1ccc2[nH]c(-c3ccc(OCc4cn(CCNc5ccnc6cc(Cl)ccc56)nn4)cc3)nc2c1.Cl.Cl.Cl` [Compound 14e, 2-{4-[(1-{2-[(7-chloroquinolin-4-yl)amino]ethyl}-1H-1,2,3-triazol-4-yl)methoxy]phenyl}-N-propyl-1H-benzo[d]imidazol-5-carboximidamide trihydrochloride], the melting point is 209 to 211 °C. The IC50 in series [1] is above 100 µM. Moreover, in series [2], the IC50 is above 100 µM. The same molecule registered an IC50 in series [3] above 100 µM. The molecule further returned an IC50 in series [4] of 10.9 µM. In series [5], this molecule gave an IC50 above 100 µM. The “increase of the proportion of cells in subG0/G1 phase compared to untreated cells” value in series [6] (HuT-78, 5 µM) was 68%. Further, the IC50 in series [7] was above 100 µM.

The molecule `Clc1ccc2c(NCCn3cc(COc4ccc(-c5nc6ccccc6[nH]5)cc4Br)nn3)ccnc2c1` [Compound 15a, N-[2-(4-{[4-(1H-benzo[d]imidazol-2-yl)-2-bromophenoxy]methyl}-1H-1,2,3-triazol-1-yl)ethyl]-7-chloroquinolin-4-amine] registered a melting point of 155 to 157 °C. This molecule showed an IC50 in series [1] above 100 µM. 11.6 µM corresponded to half-maximal inhibition in series [2] (IC50). Also, the IC50 in series [3] worked out at 4.66 µM. Moreover, in series [4], the IC50 was 7.88 µM. Moreover, in series [5], the IC50 was above 100 µM. The same molecule yielded a 50% inhibitory concentration (IC50) in series [7] above 100 µM.

For `Clc1ccc2[nH]c(-c3ccc(OCc4cn(CCNc5ccnc6cc(Cl)ccc56)nn4)c(Br)c3)nc2c1` [Compound 15b, N-[2-(4-{[2-bromo-4-(5-chloro-1H-benzo[d]imidazol-2-yl)phenoxy]methyl}-1H-1,2,3-triazol-1-yl)ethyl]-7-chloroquinolin-4-amine], the melting point lay within 100 to 102 °C. In series [1], this molecule displayed an IC50 above 100 µM. In series [2], this molecule gave an IC50 of 1.24 µM. Further, the IC50 in series [3] came out at 2.06 µM. Moreover, the IC50 in series [4] amounted to 4.91 µM. Moreover, the IC50 in series [5] is above 100 µM. Further, the 50% inhibitory concentration (IC50) in series [7] was above 100 µM.

As to `COc1ccc2[nH]c(-c3ccc(OCc4cn(CCNc5ccnc6cc(Cl)ccc56)nn4)c(Br)c3)nc2c1` [Compound 15c, N-[2-(4-{[2-bromo-4-(5-methoxy-1H-benzo[d]imidazol-2-yl)phenoxy]methyl}-1H-1,2,3-triazol-1-yl)ethyl]-7-chloroquinolin-4-amine], the melting point fell in the range of 92 to 94 °C. Further, in series [1], the IC50 was above 100 µM. Half-maximal inhibition in series [2] (IC50) required 2.62 µM. The molecule further returned an IC50 in series [3] of 1.65 µM. Moreover, in series [4], 3.98 µM corresponded to half-maximal inhibition (IC50). This molecule displayed an IC50 in series [5] above 100 µM. The molecule also registered an IC50 in series [7] above 100 µM.

As for `Cl.Cl.Cl.N=C(N)c1ccc2[nH]c(-c3ccc(OCc4cn(CCNc5ccnc6cc(Cl)ccc56)nn4)c(Br)c3)nc2c1` [Compound 15d, 2-{3-bromo-4-[(1-{2-[(7-chloroquinolin-4-yl)amino]ethyl}-1H-1,2,3-triazol-4-yl)methoxy]phenyl}-1H-benzo[d]imidazol-5-carboximidamide trihydrochloride], the melting point lay in the range of 215 to 217 °C. The molecule further showed an IC50 in series [1] above 100 µM. Besides, the IC50 in series [2] was above 100 µM. In series [3], the IC50 is above 100 µM. Moreover, the IC50 in series [4] is above 100 µM. Also, the IC50 in series [5] is above 100 µM. The same molecule displayed an IC50 in series [7] above 100 µM.

Consider `CCCNC(=N)c1ccc2[nH]c(-c3ccc(OCc4cn(CCNc5ccnc6cc(Cl)ccc56)nn4)c(Br)c3)nc2c1.Cl.Cl.Cl` [Compound 15e, 2-{3-bromo-4-[(1-{2-[(7-chloroquinolin-4-yl)amino]ethyl}-1H-1,2,3-triazol-4-yl)methoxy]phenyl}-N-propyl-1H-benzo[d]imidazol-5-carboximidamide trihydrochloride], for which the melting point was in the range of 169 to 171 °C. Moreover, the IC50 in series [1] is above 100 µM. This molecule returned an IC50 in series [2] above 100 µM. The same molecule showed an IC50 in series [3] above 100 µM. Moreover, the midpoint of inhibition in series [4], the IC50, lay at 7.83 µM. This molecule also gave an IC50 in series [5] above 100 µM. In series [6] (HuT-78, 5 µM), the “increase of the proportion of cells in subG0/G1 phase compared to untreated cells” value was 36%. In series [7], this molecule gave an IC50 above 100 µM.

For orientation: IC50 means the midpoint of a concentration-inhibition curve. High values mean weaker potency, low ones greater potency. In general, melting point refers to the temperature, or range, at which the solid turns liquid.
